Results: ChEMBL document CHEMBL4765344, “Expanding the anticancer potential of 1,2,3-triazoles via simultaneously targeting Cyclooxygenase-2, 15-lipoxygenase and tumor-associated carbonic anhydrases” (Eur J Med Chem, 2020)

Assays:
[1] = biological target: T1, Prostaglandin G/H synthase 1 (Ovis aries, UniProt P05979); assay: Inhibition of ovine COX1 by colorimetric analysis
T1 sequence (P05979 whole entry): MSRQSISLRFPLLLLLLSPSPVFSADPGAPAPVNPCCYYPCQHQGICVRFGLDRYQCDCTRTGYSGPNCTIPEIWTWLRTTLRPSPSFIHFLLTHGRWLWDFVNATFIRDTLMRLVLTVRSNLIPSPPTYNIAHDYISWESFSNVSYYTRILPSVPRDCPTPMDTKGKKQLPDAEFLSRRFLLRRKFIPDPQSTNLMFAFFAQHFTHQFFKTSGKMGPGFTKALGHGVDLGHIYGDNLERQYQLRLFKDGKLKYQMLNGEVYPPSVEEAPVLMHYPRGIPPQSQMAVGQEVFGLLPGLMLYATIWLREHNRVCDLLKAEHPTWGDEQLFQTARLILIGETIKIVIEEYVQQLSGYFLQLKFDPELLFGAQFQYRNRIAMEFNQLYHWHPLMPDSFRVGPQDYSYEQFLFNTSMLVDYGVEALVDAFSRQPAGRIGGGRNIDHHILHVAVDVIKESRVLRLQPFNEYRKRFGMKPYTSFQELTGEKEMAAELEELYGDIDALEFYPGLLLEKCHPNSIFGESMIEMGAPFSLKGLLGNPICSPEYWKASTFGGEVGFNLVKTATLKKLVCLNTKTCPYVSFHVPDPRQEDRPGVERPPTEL

[2] = Inhibition of soya bean 15-LOX; design: species or system Glycine max
Carbonic anhydrase 1 = Carbonic anhydrase 1 (Homo sapiens, UniProt P00915); assay: Inhibition of human CA1 by stopped-flow carbon dioxide hydration assay
Carbonic anhydrase 2 = Carbonic anhydrase 2 (Homo sapiens, UniProt P00918); assay: Inhibition of human CA2 by stopped-flow carbon dioxide hydration assay
Carbonic anhydrase 9 = Carbonic anhydrase 9 (Homo sapiens, UniProt Q16790); assay: Inhibition of human CA9 by stopped-flow carbon dioxide hydration assay
Carbonic anhydrase 12 = Carbonic anhydrase 12 (Homo sapiens, UniProt O43570); assay: Inhibition of human CA12 by stopped-flow carbon dioxide hydration assay
WI-38 = assay: Cytotoxicity against human WI-38 cells assessed as reduction in cell viability after 72 hrs by SRB assay; format: cell-based; details: WI-38, 72 h
A549 = assay: Antiproliferative activity against human A549 cells assessed as inhibition of cell growth at 100 microM measured after 72 hrs by SRB assay; format: functional
HepG2 = assay: Antiproliferative activity against human HepG2 cells assessed as inhibition of cell growth at 100 microM measured after 72 hrs by SRB assay; format: functional
MCF7 [3] = assay: Antiproliferative activity against human MCF-7 cells assessed as inhibition of cell growth at 100 microM measured after 72 hrs by SRB assay; format: functional
MCF7 [4] = assay: Antiproliferative activity against human MCF-7 cells assessed as cell growth inhibition measured after 72 hrs by SRB assay; format: functional, cell-based; details: MCF7, 72 h
[5] = Toxicity in ip dosed BALB/c mouse measured for 3 days; format: organism-based; details: in vivo, time 3 day
MCF7 [6] = assay: Antitumor activity against human MCF7 cells xenografted in BALB/c mouse assessed as reduction in tumor volume at 23 mg/kg, ip administered thrice a week for 28 days by vernier caliper analysis; format: functional; details: time 28 day
[7] = Toxicity in BALB/c mouse xenografted with human MCF7 cells assessed as body weight at 23 mg/kg, ip administered thrice a week for 28 days measured on day 28 (reference value: 29.8 gms); format: organism-based; details: in vivo, 672 h, time 28 day
MCF7 [8] = assay: Antiproliferative activity against human MCF-7 cells assessed as inhibition of cell growth at 100 microM measured after 72 hrs by SRB assay relative to celecoxib; format: functional; design: scale not given: the % may be the effect or the level left

Carbonic anhydrase 12, sequence (O43570 whole entry): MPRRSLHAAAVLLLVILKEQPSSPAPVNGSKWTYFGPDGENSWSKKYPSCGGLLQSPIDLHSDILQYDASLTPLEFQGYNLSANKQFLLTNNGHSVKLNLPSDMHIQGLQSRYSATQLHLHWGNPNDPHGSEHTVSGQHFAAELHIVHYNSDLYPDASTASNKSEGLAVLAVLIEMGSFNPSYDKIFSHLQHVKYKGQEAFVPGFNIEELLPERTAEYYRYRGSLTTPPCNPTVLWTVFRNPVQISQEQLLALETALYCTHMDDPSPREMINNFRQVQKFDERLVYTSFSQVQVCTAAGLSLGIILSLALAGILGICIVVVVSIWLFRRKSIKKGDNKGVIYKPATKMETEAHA
Carbonic anhydrase 1, sequence (P00915 whole entry): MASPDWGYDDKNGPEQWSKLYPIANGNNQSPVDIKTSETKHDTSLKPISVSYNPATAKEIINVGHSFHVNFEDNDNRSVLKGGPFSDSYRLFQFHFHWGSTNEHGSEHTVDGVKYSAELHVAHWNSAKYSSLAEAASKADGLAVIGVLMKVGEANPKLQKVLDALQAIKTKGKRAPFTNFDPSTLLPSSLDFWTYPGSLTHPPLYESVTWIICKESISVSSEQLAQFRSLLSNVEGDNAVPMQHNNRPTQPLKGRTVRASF

In the case of `Cc1c(-c2nn(-c3ccccc3)cc2/C=N/O)nnn1-c1ccc(C(=O)O)cc1`, the IC50 [1] is reported as 12.4 µM, the IC50 [2] is reported as 1.29 µM and the Ki (Carbonic anhydrase 1) is reported as 4.63 µM. The Ki (Carbonic anhydrase 2) was 0.239 µM, the Ki (Carbonic anhydrase 9) was 2.25 µM and the Ki (Carbonic anhydrase 12) was 0.154 µM. The IC50 (WI-38) was 379 µM, the inhibition at 100 µM (A549) was 12.3% and the inhibition at 100 µM (HepG2) was 7.68%. For the same molecule, the inhibition at 100 µM (MCF7 [3]) was 83.4%, the IC50 (MCF7 [4]) was 3.2 µM and the LD50 at 72 h [5] was 61.7 mg/kg. The Activity (MCF7 [6]) was 0.45 cm3, the Activity [7] was 27.3 g and the Activity (MCF7 [8]) was 80%.
